According to patent publication US6908919B2, “Substituted polycyclic aryl and heteroaryl pyrazinones useful for selective inhibition of the coagulation cascade” (Pharmacia Corporation, priority 1999, dated 2005):

Tests used:
[1] = biological target: T1, recombinant soluble tissue factor and recombinant human factor VIIa (TF-VIIa) (Homo sapiens, UniProt P08709); assay: TF-VIIa Assay; assay type: biochemical; conditions: for IC50: read-out: IC50 TF-VIIa; for inhibition at 30 µM: 1 h, at 30 µM inhibitor
T1 construct: conversion of coagulation factor VII to VIIa by Xa; purchased American Diagnostica, Greenwich Conn; host or cells: VIIa purchased; soluble TF made in house in E. coli

Human thrombin [2] = biological target: T2, Human thrombin (Homo sapiens, UniProt P00734)
Human factor Xa = Human factor Xa (Homo sapiens, UniProt P00742); assay: Xa Assay; assay type: biochemical; parameters: purchased Enzyme Research Laboratories, South Bend Ind; conditions: for % Inhibition Factor Xa (30 µM): at 30 µM inhibitor; for inhibition at 100 µM: at 100 μM inhibitor
Human thrombin [3] = biological target: T2, Human thrombin; assay: biochemical; conditions: for inhibition at 100 µM: read-out: % Inhibition Thrombin II at 100 μM

Sequence of Human factor Xa (P00742 41-179 limits assumed): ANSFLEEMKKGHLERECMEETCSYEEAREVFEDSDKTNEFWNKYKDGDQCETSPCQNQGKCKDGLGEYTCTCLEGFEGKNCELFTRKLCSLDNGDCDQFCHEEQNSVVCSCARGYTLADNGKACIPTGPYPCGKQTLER
Sequence of Human factor Xa (P00742 235-488 limits assumed): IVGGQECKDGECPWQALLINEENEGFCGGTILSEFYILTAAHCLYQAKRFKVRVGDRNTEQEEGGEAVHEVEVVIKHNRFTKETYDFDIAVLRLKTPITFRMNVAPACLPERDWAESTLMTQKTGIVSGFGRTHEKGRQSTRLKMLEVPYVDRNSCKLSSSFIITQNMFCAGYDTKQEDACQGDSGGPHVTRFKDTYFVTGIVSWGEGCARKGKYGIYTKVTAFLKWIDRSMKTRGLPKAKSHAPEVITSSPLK
T1 sequence (P08709 61-212 limits assumed): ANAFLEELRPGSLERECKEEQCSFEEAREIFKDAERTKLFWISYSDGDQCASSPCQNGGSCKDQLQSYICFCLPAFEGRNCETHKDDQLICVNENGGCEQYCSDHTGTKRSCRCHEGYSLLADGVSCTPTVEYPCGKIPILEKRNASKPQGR
T1 sequence (P08709 213-466 limits assumed): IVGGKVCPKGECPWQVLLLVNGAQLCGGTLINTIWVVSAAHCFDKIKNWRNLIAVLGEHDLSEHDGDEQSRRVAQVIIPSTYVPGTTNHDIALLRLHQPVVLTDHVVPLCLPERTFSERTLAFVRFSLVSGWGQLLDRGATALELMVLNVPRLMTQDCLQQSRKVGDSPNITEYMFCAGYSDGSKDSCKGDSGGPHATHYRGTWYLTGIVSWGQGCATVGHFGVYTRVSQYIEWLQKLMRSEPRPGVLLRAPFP
T1 sequence (P13726 33-251 partner limits assumed): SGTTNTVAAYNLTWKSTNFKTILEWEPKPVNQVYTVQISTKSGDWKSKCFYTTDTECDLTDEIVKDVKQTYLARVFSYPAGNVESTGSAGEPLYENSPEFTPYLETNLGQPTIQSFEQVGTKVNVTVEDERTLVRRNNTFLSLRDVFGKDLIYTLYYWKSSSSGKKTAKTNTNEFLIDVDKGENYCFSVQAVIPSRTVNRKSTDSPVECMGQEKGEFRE

Compound | IC50 [1] | % Inhibition Thrombin II (30 µM) (Human thrombin [2]) | % Inhibition Factor Xa (30 µM) (Human factor Xa) | further results
CC(C)NC(=N)c1ccc(CNC(=O)Cn2c(-c3cccc(N)c3)c(Cl)nc(NC3CCC3)c2=O)cc1 [Example 161] | 88.4 µM | 7% | – | –
COC(=O)c1cc(N)cc(-c2c(Cl)nc(NC3CCC3)c(=O)n2CC(=O)NCc2ccc(C(=N)N)cc2)c1 [Example 127] | 0.031 µM | 23% | 27% | –
N=C(NCc1ccccc1)c1ccc(CNC(=O)Cn2c(-c3cccc(N)c3)c(Cl)nc(NC3CCC3)c2=O)cc1 [Example 160] | 18 µM | 9% | 7% | –
CN(C)CCNC(=N)c1ccc(CNC(=O)Cn2c(-c3cccc(N)c3)c(Cl)nc(NC3CCC3)c2=O)cc1 [Example 166] | 63 µM | 5% | 2% | –
COCC/N=C(\NCCOC)c1ccc(CNC(=O)Cn2c(-c3cccc(N)c3)c(Cl)nc(NC3CCC3)c2=O)cc1 [Example 164] | – | 5% | 2% | inhibition at 30 µM [1]: 24%
COCCNC(=N)c1ccc(CNC(=O)Cn2c(-c3cccc(N)c3)c(Cl)nc(NC3CCC3)c2=O)cc1 [Example 163] | 40 µM | 4% | – | –
N=C(N)c1ccc(Cc2cccc(-n3c(-c4cccc(N)c4)c(Cl)nc(NC4CCC4)c3=O)c2)cc1 [Example 138] | – | – | – | inhibition at 100 µM (Human factor Xa): 28%; inhibition at 100 µM (Human thrombin [3]): 39%; inhibition at 30 µM [1]: 8%
N=C(N)c1ccc(CNC(=O)Cn2c(-c3cccc(C(=N)N)c3)c(Cl)nc(NC3CCC3)c2=O)cc1 [Example 114] | 0.38 µM | – | – | IC50 (Human factor Xa): 6.5 µM; IC50 (Human thrombin [3]): 4.3 µM
N=C(NC(=O)OCc1ccccc1)c1ccc(CNC(=O)Cn2c(-c3cccc(N)c3)c(Cl)nc(NC3CCC3)c2=O)cc1 [Example 151] | 0.23 µM | 29% | 17% | –
CC(C)Nc1nc(Cl)c(-c2cccc(N)c2)n(CC(=O)Nc2ccc(S(=O)(=O)NC(=N)N)cc2)c1=O [Example 155] | – | 2% | 11% | inhibition at 30 µM [1]: 1%
CC(C)Nc1nc(Cl)c(-c2cc(N)cc(C(=O)NCc3cc(C(F)(F)F)cc(C(F)(F)F)c3)c2)n(CC(=O)NCc2ccc(C(=N)N)cc2)c1=O [Example 128-6] | 0.332 µM | – | – | inhibition at 100 µM (Human factor Xa): 29%; inhibition at 100 µM (Human thrombin [3]): 40%
CN(C)CC/N=C(\NCCN(C)C)c1ccc(CNC(=O)Cn2c(-c3cccc(N)c3)c(Cl)nc(NC3CCC3)c2=O)cc1 [Example 165] | 63 µM | 5% | 4% | –
COC(=O)c1cccc(Sc2ccc(N)cc2-c2c(Cl)nc(NC(C)C)c(=O)n2CC(=O)NCc2ccc(C(=N)N)cc2)c1 [Example 112] | 0.27 µM | – | – | IC50 (Human factor Xa): 35 µM; IC50 (Human thrombin [3]): 13 µM
C/N=C(/NC)c1ccc(CNC(=O)Cn2c(-c3cccc(N)c3)c(Cl)nc(NC3CCC3)c2=O)cc1 [Example 162] | – | 2% | – | inhibition at 30 µM [1]: 35%
CC(C)Nc1nc(Cl)c(-c2cccc(N)c2)n(CC(=O)NCC2CCC(C(=N)N)C=N2)c1=O (stereo not drawn) [Example 150] | 0.36 µM | – | 4% | IC50 (Human thrombin [3]): 25 µM
Nc1cccc(-c2c(Cl)nc(NC3CCC3)c(=O)n2CC(=O)NCc2ccc(-c3noc(=O)[nH]3)cc2)c1 [Example 152] | – | – | – | IC50 (Human factor Xa): > 30 µM; IC50 (Human thrombin [3]): > 30 µM; inhibition at 30 µM [1]: 28%
Nc1cccc(-c2c(Cl)nc(NC3CCC3)c(=O)n2CC(=O)NCc2ccc3c(N)nsc3c2)c1 [Example 145] | 26.8 µM | – | 3% | IC50 (Human thrombin [3]): > 30 µM
Nc1ccc(CNC(=O)Cn2c(-c3cccc(N)c3)c(Cl)nc(NC3CCC3)c2=O)cc1 [Example 158] | – | 6% | – | IC50 (Human factor Xa): > 30 µM; inhibition at 30 µM [1]: 10%

The next lines start with results.

IC50 [1] | % Inhibition Thrombin II (30 µM) (Human thrombin [2]) | % Inhibition Factor Xa (30 µM) (Human factor Xa) | Compound | further results
– | 5% | 7% | CC(C)Nc1nc(Cl)c(-c2cccc(N)c2)n(CC(=O)NCc2ccc(C(N)=S)cc2)c1=O [Example 156] | inhibition at 30 µM [1]: 27%
1.2 µM | 27% | 12% | N=C(N)c1ccc(CNC(=O)Cn2c(-c3ccccc3N)cnc(NC3CCC3)c2=O)cc1 [Example 116] | –
0.033 µM | 21% | 18% | COC(=O)c1cc(N)cc(-c2cnc(NC3CCC3)c(=O)n2CC(=O)NCc2ccc(C(=N)N)cc2)c1 [Example 117] | –
0.01 µM | 45% | 26% | N=C(N)c1ccc(CNC(=O)Cn2c(-c3cc(N)cc(N)c3)cnc(NC3CCC3)c2=O)cc1 [Example 119] | –
0.0095 µM | – | – | CC(C)Nc1ncc(-c2cc(N)cc(N)c2)n(CC(=O)NCc2ccc(C(=N)N)cc2)c1=O [Example 121] | inhibition at 83 µM (Human factor Xa; at 83 μM inhibitor): 23%; inhibition at 83 µM (Human thrombin [3]; read-out: % Inhibition Thrombin II at 83 μM): 44%
0.0066 µM | – | – | CC(C)Nc1nc(Cl)c(-c2cc(N)cc(C(=O)NC3CCC3)c2)n(CC(=O)NCc2ccc(C(=N)N)cc2)c1=O [Example 128-15] | inhibition at 100 µM (Human factor Xa): 32%; IC50 (Human thrombin [3]): 13.3 µM
0.05 µM | 20% | 15% | CC(C)Nc1nc(Cl)c(-c2cc(N)ccc2SCC(=O)O)n(CC(=O)NCc2ccc(C(=N)N)cc2)c1=O [Example 110] | –
0.007 µM | – | – | CC(C)Nc1nc(Cl)c(-c2cc(N)cc(C(=O)NC3CCCC3)c2)n(CC(=O)NCc2ccc(C(=N)N)cc2)c1=O [Example 128-16] | inhibition at 100 µM (Human factor Xa): 36%; IC50 (Human thrombin [3]): 10.2 µM
0.052 µM | 3% | – | N=C(N)c1ccc(CNC(=O)Cn2c(-c3cc(N)cc(C(=O)O)c3)cnc(NC3CCC3)c2=O)cc1 [Example 118] | IC50 (Human factor Xa): 52.3 µM
0.0107 µM | – | – | CC(C)Nc1nc(Cl)c(-c2cc(N)cc(C(=O)NC(C)(C)c3ccccc3)c2)n(CC(=O)NCc2ccc(C(=N)N)cc2)c1=O [Example 128-4] | inhibition at 100 µM (Human factor Xa): 42%; IC50 (Human thrombin [3]): 24 µM
0.1 µM | – | – | N=C(N)c1ccc(CNC(=O)Cn2c(-c3cc(N)nc(C(=O)O)c3)cnc(NC3CCC3)c2=O)cc1 [Example 120] | inhibition at 100 µM (Human factor Xa): 43%; inhibition at 100 µM (Human thrombin [3]): 47%
